# Measured values: patent publication US20240172750A1, “5-Fluoro-4-Imino-3-Methyl-1-Tosyl-3,4-Dihydropyrimidin-2(1H)-One for Controlling Plant Diseases” (Adama Makhteshim Ltd., priority 2021, published 2024)
# Columns and labels:
# [1] = test system: Erysiphe betae (powdery mildew); experiment: Greenhouse screening test, powdery mildew in sugar beet; assay type: in vivo; conditions: starting from 100 g ai/ha, applied one day after inoculation
# Method: The screening test was conducted in a greenhouse in Gerichshain, Kupferstraße 6, Germany. The test was performed from application until 28 days after treatment. The efficacy and phytotoxic symptoms of compound of formula I to the plant species sugar beet were examined with a water control under greenhouse conditions. During the whole trial period the plants were stored at 12.6° C.-24.2° C. and 41.9-78.2% relative humidity.
# The inoculation of the leaves was carried out. A spore suspension was produced. Infested leaves of sugar beets from a field were put in water for some minutes to get a spore suspension. For better homogeneity Tween 20 (Polysorbat) was added to the spore solution (0.1%). Two diseases were observed on the sampled leaves, Uromyces betae and Erysiphe betae, just E. betae infested the plants in this screening trial. […]
# The application was carried out once one day after inoculation in an automatic application cabin at a spray volume equivalent to 200 L/ha. During the observation period of 28 days after treatment (DAT), the plants were assessed weekly for growth stage, leaf diseases and phytotoxicity. […]
# [2] = test system: Microsphaera diffusa (powdery mildew)
# Method: Microsphaera diffusa (powdery mildew) is artificially inoculated by spraying the inoculum on the leaves few days after the application.
# To test for fungicidal control of Microsphaera diffusa (powdery mildew), the soybean plants, grown in pots, are sprayed at V2 with each of the above treatments. 5 pots with 3 soybean plants each are considered, each treatment counts for 4 replicates.
# Between 14 and 21 days from the inoculation, the severity (%) of the infection is assessed.
# Eisenia fetida = experiment: Ecotoxicity: earthworms, long-term; assay type: in vivo
# Text: (§1) The ecotoxicity of flumetylsulforim was investigated in numerous studies in accordance with the strict requirements for the approval of active substances in the EU.
# Daphnia magna [3] = experiment: Ecotoxicity: aquatic invertebrates, long-term; assay type: in vivo
# Text: as §1
# Ecotoxicity: fish, acute = conditions: in vivo, Rainbow trout
# Text: as §1
# [4] = Ecotoxicity: aquatic invertebrates, acute; assay type: in vivo; conditions: in vivo, Daphnia magna
# Text: as §1
# Daphnia magna [5] = experiment: Ecotoxicity: aquatic invertebrates, acute; assay type: in vivo; conditions: wheats and barley at 2 × 100 g/ha
# Text: as §1
# [6] = test system: Pseudoperonospora cubensis (downy mildew); experiment: Glasshouse trial, downy mildew in cucumber, foliar treatment; assay type: in vivo; conditions: cucumber (Bosco); 250 OD at 100, 125, 150, 200 g ai/ha, 3 applications; 21 DA-C
# Method: The trial was carried out in a commercial glasshouse in Vittoria (RG)—Sicily region (Southern Italy) to evaluate the efficacy against Pseudoperonospora cubensis (downy mildew) and the selectivity on cucumber (Bosco variety) of ADF-16 250 OD at 100, 125, 150 and 200 g ai/ha in comparison to AIRONE PIU at 630 g ai/ha and EQUATION PRO at 21 g ai/ha.
# Each plot (2 m×5 m, 2 rows per plot) consisted of at least 10 plants and 4 replicates per treatment were carried out. The soil used for the trial was a mix of peat and perlite. 3 applications were carried out as follows: A: early curative (disease symptoms lower than 5%), B: 7-10 days from A and C: 7-10 days from B. The corresponding treatments dates were: 16 Nov. 2020 (BBCH 64), 23 Nov. 2020 (BBCH 65) and 30th of November (BBCH 67)
# The application was carried out with a backpack sprayer OleomacSP126 and a water volume of 1000 L/ha.
# Phytotoxicity, if any, was assessed 7, 14 and 21 days form each application and starting from the first symptoms the percentage of affected leaf area (% severity) as well as the percentage of affected leaves (% incidence) was measured.
# [7] = test system: Soil microbial activity (Nitrogen activity); experiment: Ecotoxicity: soil microbial activity, long-term
# Text: as §1
# Parasitoid wasp = experiment: Ecotoxicity: non-target arthropods, reproduction; assay type: in vivo
# Text: as §1
# Predatory mite = experiment: Ecotoxicity: non-target arthropods, reproduction; assay type: in vivo; conditions: wheats and barley at 2 × 100 g/ha
# Text: as §1
# Botrytis cinerea = experiment: Grey mould in strawberry, pot trial, foliar treatment; assay type: in vivo; conditions: 250 OD at 450 g ai/ha, 3 applications, last assessment
# Method: The compound of formula I 250 OD was tested at different doses, namely 400, 450 and 500 g ai/ha as depicted in the table below and compared to an untreated control as well as two reference products, SCALA (pyrimethanil 400 g/L) at 1000 g ai/ha and SIGNUM (boscalid+pyraclostrobin 26.7+[…]) at 600 g ai/ha.
# Botrytis cinerea was artificial inoculated by spraying the inoculum on the leaves 3-4 days before the application.
# To test for fungicidal control of Botrytis cinerea, the strawberry plants, grown in pots, were sprayed with each of the above treatments. 5 pots of 22 cm of diameter (the soil used for the trial is a mix of peat and perlite) with 1 plant each were used, 1 pot per replicate (each treatment is made of 4 replicates) was considered.
# Each of the treatments was applied 3 times (ABC) according to the disease development as follows: A, early curative (before the disease symptoms appear; 3-4 days after the artificial inoculation), B, 7-10 days from A and C, to be evaluated in function of the disease development (7-10 days from B).
# At the first symptoms the following parameters were assessed: • percentage of affected leaf area (% severity) • percentage of affected leaves (% incidence) • percentage of affected fruit area (% severity) • percentage of affected fruits (% incidence)
# [8] = wheats and barley at 2 × 100 g/ha
# Method for Corynespora cassiicola: The inoculation of Corynespora cassiicola and Colletotrichum dematium var. truncatum is done with infected leaves from the field few days after the application.
# To test for fungicidal control against the two necrotrophic diseases, the soybean plants, grown in pots, are sprayed at V2 with each of the above treatments. 5 pots with 3 soybean plants each are considered, each treatment counts for 4 replicates.
# Between 14 and 21 days from the inoculation the severity (%) of the infection is assessed.
smiles,measurement,setting,value
"Cc1ccc(S(=O)(=O)n2cc(F)c(=N)n(C)c2=O)cc1 [compound of formula I, 5-fluoro-4-imino-3-methyl-1-tosyl-3,4-dihydropyrimidin-2(1H)-one]",reduction of the affected leaf area compared to the UTC,[1],> 60%
same,phytotoxicity,[2]; in vivo,no significant phytotoxicity
same,control of Microsphaera diffusa,"[2]; soybean, 50-200 g ai/ha",effectively controls
same,NOEC,Eisenia fetida,NOEC = 309 mg/kg dws
same,Risk at current use pattern,Eisenia fetida; [8],Acceptable
same,NOEC,Daphnia magna [3],NOEC = 0.32 mg/L
same,Risk at current use pattern,Daphnia magna [3]; [8],Acceptable
same,LC50,"Ecotoxicity: fish, acute",5.41 µg/mL
same,EC50,[4],> 10 µg/mL
same,Risk at current use pattern,Daphnia magna [5],Acceptable
same,control of the disease (downy mildew),[6],significant control of the disease
same,Ecotoxicity endpoint (nitrogen activity),[7]; soil microbial activity,>10.3 mg/kg dws
same,Risk at current use pattern,"[7]; soil microbial nitrogen activity, wheats and barley at 2 × 100 g/ha",Acceptable
same,LR50,Parasitoid wasp,LR50 > 189 g/ha
same,Risk at current use pattern,Parasitoid wasp; [8],Acceptable
same,Risk at current use pattern,Predatory mite,Acceptable
same,phytotoxicity,Corynespora cassiicola; in vivo,no significant phytotoxicity
same,control of Corynespora cassiicola,"Corynespora cassiicola; soybean, 50-200 g ai/ha",effectively controls
same,control (fungicide efficacy on leaf severity),Botrytis cinerea,more than 90%
